Assay results from ChEMBL document CHEMBL4052770, “Synthesis and in vitro antiproliferative activities of (5-aryl-1,2,4-oxadiazole-3-yl) methyl d-ribofuranosides” (2017).

Tests used:
Type in all cases: functional
SW1573 = experiment: Antiproliferative activity against human SW1573 cells after 48 hrs by sulforhodamine B assay; settings: SW1573, 48 h
WiDr = experiment: Antiproliferative activity against human WiDr cells after 48 hrs by sulforhodamine B assay
T47D = experiment: Antiproliferative activity against human T47D cells after 48 hrs by sulforhodamine B assay
HBL-100 = experiment: Antiproliferative activity against human HBL100 cells after 48 hrs by sulforhodamine B assay; settings: HBL-100, 48 h
HeLa = experiment: Antiproliferative activity against human HeLa cells after 48 hrs by sulforhodamine B assay
A549 = experiment: Antiproliferative activity against human A549 cells after 48 hrs by sulforhodamine B assay; settings: A549, 48 h

Row | GI50 (SW1573) [µM] | GI50 (T47D) [µM] | GI50 (HeLa) [µM] | GI50 (A549) [µM] | SMILES | GI50 (WiDr) [µM] | GI50 (HBL-100) [µM]
1 | > 100 | 55 | 38 | 37 | COc1cc(C2=NOC(CO[C@@H]3O[C@H](CSc4ncn[nH]4)[C@H]4OC5(CCCC5)O[C@@H]34)C2)cc(OC)c1OC (stereo not given in full) | 53 | 43
2 | > 100 | > 100 | 89 | 90 | CC1(C)O[C@H]2[C@H](OCc3noc(-c4ccc([N+](=O)[O-])cc4)n3)O[C@H](CSc3ncn[nH]3)[C@H]2O1 | > 100 | > 100
3 | 10 | 10 | 14 | 13 | Clc1ccc(-c2nc(CO[C@@H]3O[C@H](CSc4ncn[nH]4)[C@H]4OC5(CCCC5)O[C@@H]34)no2)cc1 | 4.5 | 24
4 | 97 | 94 | 67 | 59 | COc1cc(-c2cc(CO[C@@H]3O[C@H](CSc4ncn[nH]4)[C@H]4OC5(CCCC5)O[C@@H]34)on2)cc(OC)c1OC | 74 | 87
5 | > 100 | > 100 | > 100 | > 100 | CC1(C)O[C@H]2[C@H](OCc3noc(-c4ccc([N+](=O)[O-])cc4)n3)O[C@H](CSc3nnc(N)s3)[C@H]2O1 | > 100 | > 100
6 | 27 | 50 | 15 | 32 | O=[N+]([O-])c1ccc(-c2nc(CO[C@@H]3O[C@H](CO)[C@H]4OC5(CCCC5)O[C@@H]34)no2)cc1 | 41 | 17
7 | 29 | 52 | 17 | 29 | CC(=O)OC[C@H]1O[C@@H](OCc2noc(-c3ccc([N+](=O)[O-])cc3)n2)[C@@H]2OC3(CCCC3)O[C@@H]21 | 36 | 23
8 | > 100 | > 100 | > 100 | > 100 | Cc1ccc(S(=O)(=O)OC[C@H]2O[C@@H](OCc3noc(-c4ccc([N+](=O)[O-])cc4)n3)[C@@H]3OC4(CCCC4)O[C@@H]32)cc1 | > 100 | > 100
9 | 16 | 19 | 28 | 14 | Nc1nnc(SC[C@H]2O[C@@H](OCc3noc(-c4ccc([N+](=O)[O-])cc4)n3)[C@@H]3OC4(CCCC4)O[C@@H]32)s1 | 26 | 26
10 | 38 | 42 | 31 | 36 | COc1cc(-c2nc(CO[C@@H]3O[C@H](CSc4nnc(N)s4)[C@H]4OC5(CCCC5)O[C@@H]34)no2)cc(OC)c1OC | 41 | 33
11 | 17 | 18 | 16 | 15 | Nc1nnc(SC[C@H]2O[C@@H](OCc3noc(-c4ccc(Cl)cc4)n3)[C@@H]3OC4(CCCC4)O[C@@H]32)s1 | 15 | 30
12 | 60 | > 100 | 99 | 99 | CC1(C)O[C@H]2[C@H](OCc3noc(-c4ccc([N+](=O)[O-])cc4)n3)O[C@H](CO)[C@H]2O1 | > 100 | 99
13 | > 100 | 41 | 30 | 33 | COc1cc(-n2cc(CO[C@@H]3O[C@H](CSc4ncn[nH]4)[C@H]4OC5(CCCC5)O[C@@H]34)nn2)cc(OC)c1OC | 26 | 84
14 | 15 | 20 | 20 | 10 | O=[N+]([O-])c1ccc(-c2nc(CO[C@@H]3O[C@H](CSc4ncn[nH]4)[C@H]4OC5(CCCC5)O[C@@H]34)no2)cc1 | 20 | 24
15 | 36 | 44 | 37 | 28 | COc1cc(-c2nc(CO[C@@H]3O[C@H](CSc4ncn[nH]4)[C@H]4OC5(CCCC5)O[C@@H]34)no2)cc(OC)c1OC | 42 | 34
